Experimental data published in patent US8859018B2, “Delivery carrier for antimicrobial essential oils” (Nestec S.A., priority 2010, dated 2014).

Assay: Un-inoculated control samples of the challenge tests in MOS / MAS
Settings: 0.10%
Procedure: Challenge Test with moulds was according to the following steps: 1) Add 100 g of MOS into a 250 ml sterile Schott bottle with screw-cap cover; 2) Add 0.1 to 2 ml of mould (A. niger/P. nalgiovence/E. amstelodami) inoculum to meet the target inoculum of 10^2-10^3 cfu/g of MOS into the 100 g MOS and shake to mix well; 3) Pour 35 g of the inoculated MOS into a petri dish. Perform this in duplicate; 4) Pipette 1 g of inoculated MOS from the Schott bottle into 9 ml sterile Tryptone Salt 0.1% diluents and vortex. Perform this in duplicate; 5) Plate 0.1-0.5 ml of inoculated Tryptone Salt 0.1% onto DG18 plates at appropriate dilutions by Spread Plate Method. Incubate the agar plates at 25° C. for 5 days to enumerate the initial mould count; 6) Incubate the inoculated MOS in petri dishes at 30° C. for a week. Monitor for mould growth by visual observation after one week. Perform this mould growth monitoring for a period of 4 weeks; 7) The control was prepared by repeating steps 3 to 6 without using any inoculum. The control was plated onto PCA with Cycloheximide plates.
Challenge Test with yeasts was according to the following steps: 1) Add 100 g of MOS into a 250 ml sterile Schott bottle with screw-cap cover; 2) Add 0.1 ml to 2 ml of yeast (Z. bailii) inoculum to meet the target inoculum of 10^2 to 10^3 cfu/g of MOS into the 100 g MOS and shake to mix well; 3) Pour 35 g of the inoculated MOS into two 150 ml sterile disposable polypropylene container with screw-cap cover; 4) Pipette 1 g of inoculated MOS into 9 ml sterile Tryptone Salt 0.1% diluent and vortex. Perform this in duplicate; 5) Plate 0.1 ml to 0.5 ml of inoculated Tryptone Salt 0.1% onto MEA at appropriate dilutions by Spread Plate Method. Incubate the plates at 30° C. for 3 days for the enumeration of the initial yeast count; 6) Incubate the inoculated MOS in 150 ml containers at 30° C. for a week; 7) After one week, repeat steps 4 to 6 for the weekly monitoring of Z. bailii growth behavior in MOS. Perform the monitoring for a period of 4 weeks; 8) The control was prepared by repeating steps 3 to 7 without using any inoculum.
The method for producing MAS was the same as for the MOS production in experiment 4. The preparation of the microorganism cultures as well as the challenge tests were identical to the ones described in experiment 4 as well.

[1] = MAGGI Abalone Sauce, age 0 month
[2] = MAGGI Abalone Sauce, age 1 month
[3] = MAGGI Abalone Sauce, age 3 month
[4] = MAGGI Abalone Sauce, age 6 month
[5] = MAGGI Abalone Sauce, age 10 month
[6] = MAGGI Abalone Sauce, age 12 month
[7] = MAGGI Oyster Sauce, age 0 month

C/C=C/C=C/C(=O)[O-].[K+] [KS, potassium sorbate]
Week 0 (Log cfu/g) [1]: <1.00 Log cfu/g | Week 1 (Log cfu/g) [1]: <1.00 Log cfu/g | Week 2 (Log cfu/g) [1]: <1.00 Log cfu/g | Week 3 (Log cfu/g) [1]: <1.00 Log cfu/g | Week 4 (Log cfu/g) [1]: <1.00 Log cfu/g | Week 0 (Log cfu/g) [2]: <1.00 Log cfu/g | Week 1 (Log cfu/g) [2]: <1.00 Log cfu/g | Week 2 (Log cfu/g) [2]: <1.00 Log cfu/g | Week 3 (Log cfu/g) [2]: <1.00 Log cfu/g | Week 4 (Log cfu/g) [2]: <1.00 Log cfu/g | Week 0 (Log cfu/g) [3]: <1.00 Log cfu/g | Week 1 (Log cfu/g) [3]: <1.00 Log cfu/g | Week 2 (Log cfu/g) [3]: <1.00 Log cfu/g | Week 3 (Log cfu/g) [3]: <1.00 Log cfu/g | Week 4 (Log cfu/g) [3]: <1.00 Log cfu/g | Week 0 (Log cfu/g) [4]: <1.00 Log cfu/g | Week 1 (Log cfu/g) [4]: <1.00 Log cfu/g | Week 2 (Log cfu/g) [4]: <1.00 Log cfu/g | Week 3 (Log cfu/g) [4]: <1.00 Log cfu/g | Week 4 (Log cfu/g) [4]: <1.00 Log cfu/g | Week 0 (Log cfu/g) [5]: <1.00 Log cfu/g | Week 1 (Log cfu/g) [5]: <1.00 Log cfu/g | Week 2 (Log cfu/g) [5]: <1.00 Log cfu/g | Week 3 (Log cfu/g) [5]: <1.00 Log cfu/g | Week 4 (Log cfu/g) [5]: <1.00 Log cfu/g | Week 0 (Log cfu/g) [6]: <1.00 Log cfu/g | Week 1 (Log cfu/g) [6]: <1.30 Log cfu/g | Week 2 (Log cfu/g) [6]: <1.30 Log cfu/g | Week 3 (Log cfu/g) [6]: <1.30 Log cfu/g | Week 4 (Log cfu/g) [6]: <1.30 Log cfu/g | Week 0 (Log cfu/g) [7]: <1.30 Log cfu/g | Week 1 (Log cfu/g) [7]: <1.30 Log cfu/g | Week 2 (Log cfu/g) [7]: <1.30 Log cfu/g | Week 3 (Log cfu/g) [7]: <1.30 Log cfu/g | Week 4 (Log cfu/g) [7]: <1.30 Log cfu/g
